How the values were obtained:
Colo265 = assay: In vivo solid tumor disease model, Colo265; design: species or system female athymic CD1 mice; details: Colo265, 30 mg/kg i.p. once daily, 14 days
[1] = target: T1, recombinant human c-Met/HGF receptor (Homo sapiens, UniProt P08581); assay: In vitro receptor tyrosine kinase assay (DELFIA), c-Met/HGF receptor; type: biochemical; details: recombinant c-Met IC, 10 uM ATP, DELFIA; read-out: C-Met (IC50)
T1 construct: His tag (pBlueBacHis2A vector); made in house; host or cells: Hi-5 cells (Trichoplusia ni), baculovirus
Experimental: Cell pellets were frozen at −80° C. until purification was performed.
The coated plates were washed and stored at 4° C. […] After incubation, the kinase reactions were quenched with EDTA and the plates were washed.

VEGF receptor KDR = target: T2, VEGF receptor KDR (Homo sapiens, UniProt P35968); assay: In vitro receptor tyrosine kinase assay (DELFIA), VEGF receptor KDR; type: biochemical; details: GST-VEGFR2 806-1356, 0.6 uM ATP, DELFIA; read-out: VEGFR (IC50)
T2 construct: made in house; host or cells: Sf9 cells (Spodoptera frugiperda), baculovirus

TPR-MET fusion protein = target: T3, TPR-MET fusion protein (Homo sapiens, UniProt P08581); assay: C-Met phosphorylation cell-based assay (MNNGHOS cells); details: MNNGHOS cells, 3 hours treatment, immunoblot; read-out: Y1230-34-35 TPR-MET phosphorylation (IC50)
T3 construct: the MET gene on chromosome 7 encoding for its cytoplasmic region catalytic domain; host or cells: MNNGHOS cells; the other entry of the earlier key: TPR (P12270, Nucleoprotein TPR)
Description: C-Met Phosphorylation Cell-Based Assay
Signal was quantitated by densitometry on Alpha-Imager.

U87MG = assay: In vivo solid tumor disease model, U87MG; design: species or system female athymic CD1 mice; details: 75 mg/kg p.o. once daily, 14 days
Description: In Vivo Solid Tumor Disease Model
This test measures the capacity of compounds to inhibit solid tumor growth.
Tumor xenografts are established in the flank of female athymic CD1 mice (Charles River Inc.), by subcutaneous injection of 1×10^6 U87, A431 or SKLMS cells/mouse. Once established, tumors are then serially passaged s.c. in nude mice hosts. Tumor fragments from these host animals are used in subsequent compound evaluation experiments. For compound evaluation experiments female nude mice weighing approximately 20 g are implanted s.c. by surgical implantation with tumor fragments of ˜30 mg from donor tumors. When the tumors are approximately 100 mm^3 in size (˜7-10 days following implantation), the animals are randomized and separated into treatment and control groups. Each group contains 6-8 tumor-bearing mice, each of which is ear-tagged and followed individually throughout the experiment.
Mice are weighed and tumor measurements are taken by calipers three times weekly, starting on Day 1. These tumor measurements are converted to tumor volume by the well-known formula […]. The experiment is terminated when the control tumors reach a size of approximately 1500 mm^3. […] In addition to tumor volumes, body weight of animals is monitored twice weekly for up to 3 weeks. […]

A549 = assay: In vivo solid tumor disease model, A549; design: species or system female athymic CD1 mice; details: 14 days
MV4-11 = assay: In vivo solid tumor disease model, MV4-11; design: species or system female athymic CD1 mice; details: MV4-11, 20 mg/kg p.o. once daily, 14 days

T1 sequence (P08581 1078-1337): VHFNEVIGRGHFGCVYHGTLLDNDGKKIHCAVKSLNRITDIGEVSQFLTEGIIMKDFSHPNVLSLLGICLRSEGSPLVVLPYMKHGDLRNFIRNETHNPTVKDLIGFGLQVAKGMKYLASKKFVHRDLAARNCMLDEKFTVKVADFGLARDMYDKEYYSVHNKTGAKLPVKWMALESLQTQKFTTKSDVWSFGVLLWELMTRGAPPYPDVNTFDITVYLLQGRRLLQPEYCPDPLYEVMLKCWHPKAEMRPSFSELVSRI
T3 sequence (P08581 with tags, fused parts or gaps): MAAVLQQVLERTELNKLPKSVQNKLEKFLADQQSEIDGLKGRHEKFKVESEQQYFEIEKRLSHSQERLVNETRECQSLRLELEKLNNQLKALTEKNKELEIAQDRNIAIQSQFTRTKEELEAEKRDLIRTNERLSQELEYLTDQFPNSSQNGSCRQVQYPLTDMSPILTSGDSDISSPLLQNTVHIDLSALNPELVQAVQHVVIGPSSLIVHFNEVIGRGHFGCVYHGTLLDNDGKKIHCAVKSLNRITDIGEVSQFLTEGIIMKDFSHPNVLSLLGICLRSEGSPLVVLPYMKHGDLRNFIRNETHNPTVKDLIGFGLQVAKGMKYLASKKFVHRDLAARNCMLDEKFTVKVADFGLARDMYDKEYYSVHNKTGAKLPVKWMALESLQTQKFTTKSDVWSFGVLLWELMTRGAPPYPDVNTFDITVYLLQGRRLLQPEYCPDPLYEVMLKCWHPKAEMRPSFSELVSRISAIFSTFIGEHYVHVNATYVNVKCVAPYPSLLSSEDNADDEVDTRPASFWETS
T2 sequence (P35968 806-1356): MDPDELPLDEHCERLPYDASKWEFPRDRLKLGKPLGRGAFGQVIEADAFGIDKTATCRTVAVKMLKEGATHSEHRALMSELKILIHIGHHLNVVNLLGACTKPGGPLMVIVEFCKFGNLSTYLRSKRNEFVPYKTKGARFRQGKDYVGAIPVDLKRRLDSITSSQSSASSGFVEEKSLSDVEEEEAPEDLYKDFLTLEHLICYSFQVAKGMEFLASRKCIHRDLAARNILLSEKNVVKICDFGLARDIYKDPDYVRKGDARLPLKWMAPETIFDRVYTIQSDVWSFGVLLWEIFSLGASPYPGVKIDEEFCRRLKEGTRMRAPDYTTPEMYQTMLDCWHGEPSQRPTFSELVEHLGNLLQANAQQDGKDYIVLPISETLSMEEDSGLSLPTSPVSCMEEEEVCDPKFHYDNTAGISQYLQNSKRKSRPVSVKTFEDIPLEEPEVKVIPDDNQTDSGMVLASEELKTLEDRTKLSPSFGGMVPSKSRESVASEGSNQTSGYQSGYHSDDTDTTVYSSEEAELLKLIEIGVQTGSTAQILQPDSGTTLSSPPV

IC50 [1] [nM]	IC50 (VEGF receptor KDR) [nM]	IC50 (TPR-MET fusion protein) [nM]	SMILES	also measured
			CN(C(=O)CC(=O)Nc1ccc(Oc2ccnc3cc(-c4cn(CCN5CCCC5)cn4)sc23)c(F)c1)c1ccccc1	Tumor Growth Inhibition (%) (Colo265): b (% TGI in the range of 50-74)
109	5	> 5000	CN(C(=O)CC(=O)Nc1ccc(Oc2ccnc3cc(-c4nccn4C)sc23)c(F)c1)c1ccccc1 [Compound 32, N^1-(3-Fluoro-4-(2-(1-methyl-1H-imidazol-2-yl)thieno[3,2-b]pyridin-7-yloxy)phenyl)-N^3-methyl-N^3-phenylmalonamide]	
365	19	> 5000	Cn1ccnc1-c1cc2nccc(Oc3ccc(NC(=O)CC(=O)Nc4ccncc4)cc3F)c2s1 [Compound 34, N^1-{3-Fluoro-4-[2-(1-methyl-1H-imidazol-2-yl)-thieno[3,2-b]pyridin-7-yloxy]-phenyl}-N^3-pyridin-4-yl-malonamide]	
268	13	~500	Cn1ccnc1-c1cc2nccc(Oc3ccc(NC(=O)CC(=O)Nc4cccnc4)cc3F)c2s1 [Compound 40, N^1-(3-Fluoro-4-(2-(1-methyl-1H-imidazol-2-yl)thieno[3,2-b]pyridin-7-yloxy)phenyl)-N^3-(pyridine-3-yl)malonamide]	
			CCn1cnc(-c2cc3nccc(Oc4ccc(NC(=O)CC(=O)Nc5ccccc5)cc4F)c3s2)c1 [drawing 460]	Tumor Growth Inhibition (%) (U87MG): b (% TGI in the range of 50-74)
			CCn1cnc(-c2cc3nccc(Oc4ccc(NC(=O)CC(=O)Nc5ccccc5F)cc4F)c3s2)c1 [drawing 461]	Tumor Growth Inhibition (%) (U87MG): b (% TGI in the range of 50-74)
			CN(C)Cc1cccc(-c2cc3nccc(Oc4ccc(NC(=O)CC(=O)Nc5ccccc5F)cc4F)c3s2)c1 [drawing 462]	Tumor Growth Inhibition (%) (A549; A549, 20 mg/kg p.o. once daily): b (% TGI in the range of 50-74)
			CCn1cnc(-c2cc3nccc(Oc4ccc(NC(=O)C5(C(=O)Nc6ccccc6)CC5)cc4F)c3s2)c1 [drawing 463]	Tumor Growth Inhibition (%) (A549; A549, 40 mg/kg p.o. once daily): b (% TGI in the range of 50-74)
			CN1CCN(CCN(C)Cc2ccc(-c3cc4nccc(Oc5ccc(NC(=O)CC(=O)Nc6ccccc6)cc5F)c4s3)cc2)CC1 [drawing 464]	Tumor Growth Inhibition (%) (MV4-11): b (% TGI in the range of 50-74)
